Numbers after ± are expanded uncertainties.
Details: Liquid, Closed cell (Static) method

CCCCCCCCCC(=O)OCC [ethyl decanoate]
Details	vapor or sublimation pressure [kPa]
303.1 K	0.00446 ± 0.00044
313.16 K	0.0105 ± 0.0009
333.23 K	0.0478 ± 0.0032
343.2 K	0.0952 ± 0.0062
353.16 K	0.181 ± 0.011
363.12 K	0.328 ± 0.02
412.15 K	3.65 ± 0.026
422.13 K	5.472 ± 0.037
432.24 K	8.07 ± 0.054
442.23 K	11.55 ± 0.076
452.28 K	16.28 ± 0.11
462.37 K	22.35 ± 0.14

CCCCCCCCCCCC(=O)OCC [ethyl dodecanoate]
Details	vapor or sublimation pressure [kPa]
313.1 K	0.00183 ± 0.00042
351.88 K	0.0346 ± 0.0023
362.1 K	0.0674 ± 0.0044
372.12 K	0.124 ± 0.008
382.17 K	0.229 ± 0.014
392.24 K	0.399 ± 0.025
402.2 K	0.669 ± 0.015
422.15 K	1.695 ± 0.015
432.26 K	2.647 ± 0.02
442.27 K	3.986 ± 0.029
452.31 K	5.804 ± 0.041
462.43 K	8.49 ± 0.058

CCCCCC(=O)OCC [ethyl hexanoate]
Details	vapor or sublimation pressure [kPa]
253.41 K	0.00344 ± 0.00043
263.26 K	0.0106 ± 0.0009
283.06 K	0.0663 ± 0.0044
293.05 K	0.144 ± 0.009
303.03 K	0.291 ± 0.018
313.15 K	0.562 ± 0.034
323.18 K	1.018 ± 0.022
333.11 K	1.781 ± 0.015
343.09 K	2.978 ± 0.023
351.97 K	4.553 ± 0.033
362.1 K	7.184 ± 0.05
372.13 K	10.93 ± 0.075
382.15 K	16.07 ± 0.11
392.23 K	23.19 ± 0.16
402.19 K	32.56 ± 0.22
412.21 K	44.9 ± 0.3
422.19 K	60.62 ± 0.4
432.28 K	80.76 ± 0.53
442.29 K	105.57 ± 0.69
452.34 K	136.73 ± 0.9
462.43 K	174.6 ± 1.1

CCCCCCCC(=O)OCC [ethyl octanoate]
Details	vapor or sublimation pressure [kPa]
273.26 K	0.00219 ± 0.00042
283.08 K	0.00627 ± 0.00065
293.05 K	0.0156 ± 0.0013
303.09 K	0.035 ± 0.0025
313.2 K	0.0757 ± 0.005
323.31 K	0.152 ± 0.01
351.9 K	0.869 ± 0.019
362.1 K	1.487 ± 0.014
372.06 K	2.432 ± 0.019
382.13 K	3.872 ± 0.028
392.19 K	5.904 ± 0.042
402.13 K	8.723 ± 0.06
412.13 K	12.67 ± 0.086
422.12 K	18.04 ± 0.12
432.22 K	25.22 ± 0.17
442.26 K	34.49 ± 0.23
452.3 K	46.42 ± 0.31

CCCCCCCCCCCCCC(=O)OCC [ethyl tetradecanoate]
Details	vapor or sublimation pressure [kPa]
333.22 K	0.00147 ± 0.00024
343.19 K	0.00361 ± 0.00044
353.15 K	0.00775 ± 0.00067
363.09 K	0.0163 ± 0.0013
371.72 K	0.0302 ± 0.0021
382.03 K	0.0572 ± 0.0038
391.87 K	0.105 ± 0.007
401.89 K	0.187 ± 0.012
411.93 K	0.322 ± 0.02
421.97 K	0.539 ± 0.033
432.22 K	0.887 ± 0.019
442.39 K	1.394 ± 0.013
452.25 K	2.127 ± 0.017
462.3 K	3.2 ± 0.023

— the NIST ThermoML archive (doi:10.1021/je200730m)
